For 13 molecules, IC50 results are on record in US12371432B2, “Haloallylamine compounds and application thereof” (TransThera Sciences (Nanjing), Inc., priority 2019, dated 2025).

Where a name gives a salt, the structure may show the parent alone.

One experiment concerns the target T1, MAO-B (Homo sapiens, UniProt P27338).
T1 construct: purchased Active Motif
T1 sequence (P27338 1-520): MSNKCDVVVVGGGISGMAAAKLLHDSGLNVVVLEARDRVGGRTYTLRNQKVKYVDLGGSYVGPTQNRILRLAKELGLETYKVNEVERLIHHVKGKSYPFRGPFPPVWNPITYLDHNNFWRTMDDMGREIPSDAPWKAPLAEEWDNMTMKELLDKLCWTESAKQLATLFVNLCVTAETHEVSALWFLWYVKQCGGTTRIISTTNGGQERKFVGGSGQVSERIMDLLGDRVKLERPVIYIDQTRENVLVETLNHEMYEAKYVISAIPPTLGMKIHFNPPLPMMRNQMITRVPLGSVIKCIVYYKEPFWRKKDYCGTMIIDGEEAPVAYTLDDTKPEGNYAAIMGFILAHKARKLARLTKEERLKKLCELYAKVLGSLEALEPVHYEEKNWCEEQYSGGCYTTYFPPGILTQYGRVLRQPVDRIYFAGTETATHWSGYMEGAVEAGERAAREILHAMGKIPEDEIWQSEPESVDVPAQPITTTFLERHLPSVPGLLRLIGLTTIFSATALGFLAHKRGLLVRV
The experiment can be described thus: Selectivity against MAO-B enzyme (MAO-Glo). The format is biochemical. How it is done: (§1) (1) Instrument, Consumable and Reagent
(§2) Microplate reader (Perkin Elmer, EnVision), 384-well plate (Perkin Elmer), centrifuge (Eppendorf), MAO-Glo™ (Promega), MAO-A (Active Motif) and MAO-B (Active Motif).
(§3) (2) Preparation of Concentration Gradient Compound Solutions
(§4) An appropriate amount of the compound to be tested was taken, dissolved in DMSO to 10 mM and then stored. The solution was then gradiently diluted 4-fold with DMSO, 6 concentration gradients in total.
(§5) (3) Preparation of Enzyme Solutions
(§6) MAO-A/B mother liquor was diluted with the experimental buffer for MAO-A/B to obtain enzyme solutions of 2× concentrations.
(§7) (4) Preparation of Substrate Mixtures of 2× Concentrations
(§8) The mother liquor of MAO-A/B substrate mixture was diluted with the experimental buffer for MAO-A/B to obtain substrate mixtures of 2× concentrations.
(§9) 200 nL compound solutions or solvents of different concentrations and 10 μL MAO-A/B enzyme solutions of 2× concentrations were added into a 384-well plate, centrifuged at 1,000 rpm for 60 s, shaken to be mixed uniformly and then incubated at room temperature for 15 min. 10 μL substrate mixtures of 2× concentrations were then added into each well, and reaction was initiated. The 384-well plate was centrifuged at 1,000 rpm for 60 s, shaken for a uniform mixing and then incubated at room temperature for 60 min. 20 μL of test stop solution was added to stop reaction. Centrifugation was performed at 1,000 rpm for 60 s, and shaking was performed for uniform mixing. After 30 min of standing, the microplate reader was used to perform reading.
(§10) The inhibition rate was calculated according to the following formula: Inhibition rate (%)=(Signal_Max-Signal_sample)/(Signal_Max-Signal_min)×100 (6) Fitting of Dose-Response Curve
(§11) With the log value of concentration as the X axis and the percent inhibition rate as the Y axis, the log (inhibitor) vs. response-variable slope of analysis software GraphPad Prism 5 was used to fit a dose-response curve, thus obtaining the IC50 value of activity of each compound against the enzyme.

The target of another experiment is T2, MAO-A (Homo sapiens, UniProt P21397).
T2 construct: purchased Active Motif
T2 sequence (P21397 1-527): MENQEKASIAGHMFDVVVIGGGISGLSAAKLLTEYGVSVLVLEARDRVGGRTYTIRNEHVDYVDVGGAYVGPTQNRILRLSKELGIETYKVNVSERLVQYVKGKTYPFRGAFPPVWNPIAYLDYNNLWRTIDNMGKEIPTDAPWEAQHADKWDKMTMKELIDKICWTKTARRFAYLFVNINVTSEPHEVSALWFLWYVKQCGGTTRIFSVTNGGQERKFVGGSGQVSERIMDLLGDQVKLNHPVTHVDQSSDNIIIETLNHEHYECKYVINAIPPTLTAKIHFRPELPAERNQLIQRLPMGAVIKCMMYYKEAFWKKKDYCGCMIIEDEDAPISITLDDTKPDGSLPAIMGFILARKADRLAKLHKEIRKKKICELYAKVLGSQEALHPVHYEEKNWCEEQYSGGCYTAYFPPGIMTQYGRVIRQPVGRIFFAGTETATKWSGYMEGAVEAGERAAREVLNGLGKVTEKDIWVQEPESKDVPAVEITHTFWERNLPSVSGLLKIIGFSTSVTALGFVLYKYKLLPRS
The experiment can be described thus: Selectivity against MAO-A enzyme (MAO-Glo). The format is biochemical. How it is done:
as §1, §2, §3, §4, §5, §6, §7, §8, §9, §10, §11

One may read the IC50 as the concentration at which inhibition is half-maximal. High values mean a need for much substance, low ones inhibition by little substance.

Consider `CCN1CCc2nn(C/C(=C/F)CN)cc2C1=O` [Compound A6 hydrochloride, (E)-2-(2-(aminomethyl)-3-fluoroallyl)-5-ethyl-2,5,6,7-tetrahydro-4H-pyrazolo[4,3-c]pyridin-4-one], for which the IC50 was more than 100 µM against MAO-B and 89.1 µM against MAO-A.

For the molecule `NC/C(=C\F)Cn1cc2c(c1)C(=O)N(C1CC1)CC2` [Compound A22, (E)-2-(2-(aminomethyl)-3-fluoroallyl)-5-cyclopropyl-2,5,6,7-tetrahydro-4H-pyrrolo[3,4-c]pyridin-4-one], the half-inhibitory concentration (IC50) at MAO-B and against MAO-A was more than 100 µM each time.

Regarding `NC/C(=C\F)Cn1ncc2c1CCN(C1CC1)C2=O` [Compound A2 hydrochloride, (E)-1-(2-(aminomethyl)-3-fluoroallyl)-5-cyclopropyl-1,5,6,7-tetrahydro-4H-pyrazolo[4,3-c]pyridin-4-one], the IC50 on MAO-B and against MAO-A was more than 100 µM throughout.

Turning to `CCn1ccc2nn(C/C(=C/F)CN)cc2c1=O` [Compound A28 hydrochloride, (E)-2-(2-(aminomethyl)-3-fluoroallyl)-5-ethyl-2,5-dihydro-4H-pyrazolo[4,3-c]pyridin-4-one], the IC50 on MAO-B and on MAO-A was more than 100 µM each time.

As for `CNC(=O)c1cnn(C/C(=C/F)CN)c1` [Compound B1, (E)-1-(2-(aminomethyl)-3-fluoroallyl)-N-methyl-1H-pyrazole-4-carboxamide], the half-maximal inhibitory concentration (IC50) against MAO-B and against MAO-A was more than 100 µM in each case.

In the case of `Cc1c2c(cn1C/C(=C/F)CN)C(=O)N(C1CC1)CC2` [Compound A35 hydrochloride, (E)-2-(2-(aminomethyl)-3-fluoroallyl)-5-cyclopropyl-1-methyl-2,5,6,7-tetrahydro-4H-pyrrolo[3,4-c]pyridin-4-one], the half-inhibitory concentration (IC50) on MAO-B came out at 92.7 µM; against MAO-A, 8.81 µM.

As to `CCN1CCc2cn(C/C(=C/F)CN)cc2C1=O` [Compound A25, (E)-2-(2-(aminomethyl)-3-fluoroallyl)-5-ethyl-2,5,6,7-tetrahydro-4H-pyrrolo[3,4-c]pyridin-4-one], the IC50 at MAO-B and against MAO-A was more than 100 µM throughout.

Regarding `Cl.NC/C(=C\F)Cn1cc2c(c1Cl)CCN(C1CC1)C2=O` [Compound A42 hydrochloride, (E)-2-(2-(aminomethyl)-3-fluoroallyl)-1-chloro-5-cyclopropyl-2,5,6,7-tetrahydro-4H-pyrrolo[3,4-c]pyridin-4-one], the half-maximal inhibitory concentration (IC50) against MAO-B is more than 100 µM; at MAO-A, 47.6 µM.

For `CCn1ccc2c(cnn2C/C(=C/F)CN)c1=O` [Compound A29 hydrochloride, (E)-1-(2-(aminomethyl)-3-fluoroallyl)-5-ethyl-1,5-dihydro-4H-pyrazolo[4,3-c]pyridin-4-one], the IC50 was more than 100 µM on MAO-B and 87.7 µM against MAO-A.

Regarding `NC/C(=C\F)Cn1c(Br)c2c(c1Br)C(=O)N(C1CC1)CC2` [Compound A33 hydrochloride, (E)-2-(2-(aminomethyl)-3-fluoroallyl)-1,3-dibromo-5-cyclopropyl-2,5,6,7-tetrahydro-4H-pyrrolo[3,4-c]pyridin-4-one], the IC50 against MAO-B is more than 100 µM; against MAO-A, 55.9 µM.

For the molecule `CC(C)(C)N1CCc2nn(C/C(=C/F)CN)cc2C1=O` [Compound A7 hydrochloride, (E)-2-(2-(aminomethyl)-3-fluoroallyl)-5-tert-butyl-2,5,6,7-tetrahydro-4H-pyrazolo[4,3-c]pyridin-4-one], the IC50 at MAO-B and against MAO-A was more than 100 µM each time.

`NC/C(=C\F)Cn1cc2c(=O)n(C3CC3)ccc2n1` [Compound A41, (E)-2-(2-(aminomethyl)-3-fluoroallyl)-5-cyclopropyl-2,5-dihydro-4H-pyrazolo[4,3-c]pyridin-4-one]: the half-inhibitory concentration (IC50) against MAO-B and against MAO-A was more than 100 µM in each case.

As for `Cl.NC/C(=C\F)Cn1cc2c(c1Br)CCN(C1CC1)C2=O` [Compound A32 hydrochloride, (E)-2-(2-(aminomethyl)-3-fluoroallyl)-1-bromo-5-cyclopropyl-2,5,6,7-tetrahydro-4H-pyrrolo[3,4-c]pyridin-4-one], the IC50 was more than 100 µM against MAO-B and 61 µM at MAO-A.
